Read-outs that look alike come from different tables or passages of the source.
What was measured:
[1] = test system: A431 cells (WT EGFR); assay: Cell proliferation (CellTiter Glo, 72 hr), A431; assay type: cell-based; settings: Homo sapiens, A-431
Experimental: (§1) A431 human epidermoid carcinoma, H1975 human NSCLC and HCC827 human NSCLC adenocarcinoma cells were obtained from the American Type Culture Center (Manassas, Va.). A431 cells were grown in DMEM (Invitrogen, Carlsbad, Calif.) supplemented with 10% FBS (HyClone, South Logan, Utah) and 1% Penicillin-Streptomycin (P/S, Lonza, Walkersville, Md.).
(§2) Growth inhibition (GI50) values were determined by Graph Pad Prism.

[2] = molecular target: pEGFR in H1975 cells (Homo sapiens (Human), UniProt P00533, L858R/T790M); settings: 500 nM for 1 hr, 0-24 hr
[3] = test system: HCC827 cells (EGFR delE746-A750); assay: Cell proliferation (CellTiter Glo, 72 hr), HCC827; assay type: cell-based, human; settings: for GI50: Homo sapiens; for Ratio WT/mutant: proliferation GI50, WT (A431) vs HCC827
Experimental: as §1, §2

[4] = test system: H1975 cells (EGFR L858R/T790M); assay: Cell proliferation (CellTiter Glo, 72 hr), H1975; assay type: cell-based, human; settings: for GI50: Homo sapiens, NCI-H1975; for Ratio WT/mutant: proliferation GI50, WT (A431) vs H1975
Experimental: as §1, §2

[5] = molecular target: EGFR T790M/L858R (Homo sapiens (Human), UniProt P00533, L858R/T790M); settings: for covalent modification of EGFR T790M/L858R: MS analysis
[6] = molecular target: EGFR delE746-A750 (HCC827 cells) (Homo sapiens (Human), UniProt P00533, DEL746-750); assay: EGFR signaling immunoblot (1 hr) in HCC827 cells; assay type: cell-based; settings: signaling EC50, WT (A431) vs HCC827
Experimental: as §1
(§3) All primary antibodies were obtained from Cell Signaling (Danvers, Mass.) and used at 1:1000. Secondary antibodies were used at 1:10,000. Goat anti-mouse IgG IRDye 800CW antibody was obtained from LiCor Biosciences (Lincoln, Nebr.) and goat anti-rabbit IgG Alexa Fluor 680 was obtained from Invitrogen.
(§4) Cells were grown in 12-well plates (Corning, Coring, N.Y.) to 90% confluence and then incubated in low-serum (0.1% FBS) media for 16-18 hr. […] A431 cells were then stimulated with 50 ng/ml EGF (Peprotech, Rocky Hill, N.J.) for 15 min. After treatment, cell monolayers were washed with cold PBS (Invitrogen) and immediately lysed by scrapping into 60 uL cold Cell Extraction Buffer (Invitrogen) supplemented with Complete Protease inhibitors (Roche, Indianapolis, Ind.) and PhosphoSTOP (Roche) phosphatase inhibitors.
(§5) Phospho-protein signals were quantitated using Odyssey Infrared Imaging (Li-Cor Biosciences).
(§6) Blots were normalized as indicated above. […]

[7] = molecular target: EGFR L858R/T790M (H1975 cells) (Homo sapiens (Human), UniProt P00533, L858R/T790M); assay: EGFR signaling immunoblot (1 hr) in H1975 cells; assay type: cell-based; settings: for Ratio WT/mutant: signaling EC50, WT (A431) vs H1975
Experimental: as §1, §3, §4, §5
Blots were normalized as indicated above. […] Normalized data was fitted using a sigmoidal curve analysis program (Graph Pad Prism version 5) with variable Hill slope to determine the EC50 values.

[8] = molecular target: WT EGFR (A431 cells) (Homo sapiens (Human), UniProt P00533); assay: EGFR signaling immunoblot (1 hr) in A431 cells; assay type: cell-based
Experimental: as §1, §3, §4, §5, §6

[9] = A431 cells, 72 hr, read-out: WT EGFR GI50
[10] = HCC827 cells, 72 hr, read-out: HCC827 GI50
[11] = H1975 cells, 72 hr, read-out: H1975 GI50

Row | Structure (SMILES) | GI50 [1, 9] [nM] | GI50 ([1]; Table 2, A431 cells (WT EGFR), read-out: Comparative GI50, A431) [nM] | duration of action after washout (pEGFR inhibition) [2] | GI50 [3, 10] [nM] | GI50 ([3]; Table 2, HCC827 cells (delE746-A750), read-out: Comparative GI50, HCC827) [nM] | Ratio WT/mutant [3] | GI50 [4, 11] [nM] | GI50 ([4]; Table 2, H1975 cells (L858R/T790M), read-out: Comparative GI50, H1975) [nM] | Ratio WT/mutant [4] | time to complete modification of EGFR T790M/L858R ([5]; 10-fold excess of compound) [min] | mass shift as percent of compound mass ([5]; 10-fold excess of compound, MALDI) [%] | covalent modification of EGFR T790M/L858R [5] | Ratio WT/mutant [6] | Ratio WT/mutant [7] | WT-EGFR sparing in A431 cells (pEGFR, pS6) [8] | inhibition of pEGFR and downstream S6 Ribosomal protein in H1975 cells ([7]; H1975 vs A431, FIG. 1 and 2)
1 | C=CC(=O)Nc1cccc(Nc2nc(Nc3ccccc3OC)ncc2C(F)(F)F)c1 [Compound I-1, N-(3-(2-(2-methoxyphenylamino)-5-(trifluoromethyl)pyrimidin-4-ylamino)phenyl)acrylamide] | > 1000 | > 1000 | prolonged duration of action | 10 to 100 | 10 to 100 | >20 | 100 to 500 | 100 to 500 | >10 | ≤ 30 | 113 | completely modifies | >50 | >50 | – | –
2 | C=CC(=O)Nc1cccc(Oc2nc(Nc3ccc(OC)c(OC)c3OC)ncc2Cl)c1 [Compound I-7, N-(3-(5-chloro-2-(2,3,4-trimethoxyphenylamino)pyrimidin-4-yloxy)phenyl)acrylamide] | > 1000 | – | – | 100 to 500 | – | >15 | 100 to 500 | – | >10 | – | – | covalently modify | – | >50 | completely WT-EGFR sparing | mutant selective

Reference: US10081606B2, “Heteroaryl compounds and uses thereof” (Celgene CAR LLC, priority 2010, dated 2018)
